Experiments:
rats [1] = assay: Yohimbine-induced anxiety-like behavior in rat social interaction test; format: in vivo
Experimental: The male SD rats (weighing 201.8 to 285.6 g; Charles River Japan Inc.)were used in this study. On the day of behavioral evaluation, the animals were acclimatized to the test environment from 4 hours before the start of the experiment. Sixty minutes after oral administration of a vehicle (0.5 w/v % MC solution) or a test compound (prepared in suspension in 0.5 w/v % MC solution to obtain a dosing concentration of 0.5 mL per 100 g of rat body weight), two rats were allowed to meet each other in an acrylic box (50×50×50 cm). The total time of social interaction behaviors (sniffing, following, grooming and the like) during monitoring for 10 minutes immediately after meeting (between-rats interaction time) were measured with a stopwatch. Using the method of Test Example 4, the effect of a compound on the anxiety induced with administration of an anxiogenic substance was examined. Yohimbine (adrenalin α2 receptor antagonist) is known as one of the anxiogenic substance. It is thought that locus coeruleus hyperactivity that accompanies α2 receptor antagonizing action is contributory to the anxiety-inducing action of Yohimbine. Anxiety symptoms that develop with administration of Yohimbine to healthy persons were reported to be similar to panic disorders, in the pathophysiology of which abnormal locus coeruleus activity is considered to be largely involved. […]

rats [2] = assay: mCPP-induced anxiety-like behavior in rat social interaction test; format: in vivo
Experimental: (§1) The male SD rats (weighing 201.8 to 285.6 g; Charles River Japan Inc.)were used in this study. On the day of behavioral evaluation, the animals were acclimatized to the test environment from 4 hours before the start of the experiment. Sixty minutes after oral administration of a vehicle (0.5 w/v % MC solution) or a test compound (prepared in suspension in 0.5 w/v % MC solution to obtain a dosing concentration of 0.5 mL per 100 g of rat body weight), two rats were allowed to meet each other in an acrylic box (50×50×50 cm). The total time of social interaction behaviors (sniffing, following, grooming and the like) during monitoring for 10 minutes immediately after meeting (between-rats interaction time) were measured with a stopwatch.
Meanwhile, meta-chlorophenylpiperadine hydrochloride (mCPP) is an anxiogenic substance having a 5-HT2 receptor stimulation action. It was reported that mCPP induced anxiety symptoms in healthy subjects and aggravated the symptoms of generalized anxiety disorder in humans. The mCPP-induced anxiety response is an experimental model that well reflects anxiety (for example, generalized anxiety disorder) caused by abnormal signaling especially via 5-HT2 receptors.
Next, the effect on mCPP-induced anxiety was examined. […]

male SD rats [3] = assay: Conditioned fear stress (CFS) test in rats; format: in vivo, rat; settings: 0.3 mg/kg, 60 min before retention trial
Description: In this test (Folia Pharmacologica Japonica, 113, p. 113 (1999)), the influences of psychological stress resulting from past aversion experience on living organisms can be measured as behavioral suppression (freezing reaction) or autonomic nervous system hyperactivity (increases in respiratory rate and blood pressure).
The male SD rats (weighing 140.2 to 320.0 g; Charles River Japan Inc.) and a contextual learning test system were used in this study. The experimental apparatus is consisted of a soundproof box, and a test cage (20×20×25 cm), a shock generator, a controller, an external monitor and PC analysis system, which were placed in the soundproof box. The test cage has stainless bars on the floor at 1-cm intervals. A scrambled electric current was generated from the shock generator using 35 a command of the special program . The inside of the soundproof box was equipped with a speaker. A buzzer sound of 65 dB was generated via the controller using a command of the special program. The animal behavior within the test cage was recorded with a CCD camera, which was positioned on the ceiling of the soundproof box. […] The percentage of freezing behavior was determined by (Freezing time/Test time)×100. […] According to the same schedule as that on the previous day, only a buzzer sound was generated six times and the duration of freezing behavior was measured. […]

male SD rats [4] = assay: Rat social interaction test; format: in vivo; settings: 0.3 mg/kg oral
Description: It is known that these social interactions increase with administration of existing anxiolytics. This test is thought as an animal model of social phobia or generalized anxiety disorders because it is consider that contradictory social environments between two rats cause stress (Eur. J. Pharmacol., 408, p. 41 (2000)).
as §1

male SD rats [5] = assay: Elevated plus maze test in rat; format: in vivo; settings: 0.1 mg/kg oral
Description: In this test, a conflict arises between rodent's exploratory drive and an innate aversion to bright open new spaces (open arms), accordingly, it has been reported that drugs having anti-anxiety activity increase the time spent in the open arms and the number of open arm entries, while anxiogenic substance decreases these parameters (Japanese Journal of Clinical Psychopharmacology, 9, p. 2389 (2006)). This test is thought to be an animal model of generalized anxiety disorders (Folia Pharmacologica Japonica, 115, p. 5 (2005), Japanese Journal of Clinical Psychopharmacology, 9, p. 2389 (2006)).
The male SD rats (weighing 133.8 to 260.2 g; Charles River Japan Inc.) were used in this study. An apparatus was used wherein two open arms (50×10 cm) extending on the same line from a 10 cm-square central area and two enclosed arms (50×10 cm) surrounded by a wall of 40 cm height are perpendicularly crossing. Sixty minutes after oral administration of a vehicle (0.5 w/v % MC solution) or a test 20 compound (a suspension in 0.5 w/v % MC solution prepared to obtain a dosing concentration of 0.5 mL per 100 g of rat body weight), each rat was placed in the center of the elevated plus maze with its head facing toward the enclosed arm and immediately observed for its behavior for 5 minutes. The rat behavior on the maze was recorded with a digital video camera positioned on the ceiling of the laboratory. The times spent and number of entries in the open arms, enclosed arms and central platform, and distance travelled were determined using analysis software. The time spent in the open arms, percentage of open arm entries (ratio of the number of entries in the open arms to the total number of entries in the open and enclosed arms) and total distance travelled on the maze during the monitoring period were determined to evaluate the influences of the test compound.

male ICR mice = assay: Marble burying behavior test in mice; format: in vivo; settings: 3 mg/kg oral, 1 hour before test; marbles counted after 30 minutes; significant
Description: This test is known as one of the test systems for anxiolytics (Folia Pharmacologica Japonica, 126, p. 94 (2005)). Marble-burying behavior is a behavior of the mouse to bury marbles in spread planer bedding on which the marbles were placed, and is suppressed, without being accompanied by motor inhibition, by selective serotonin reuptake inhibitors (SSRIs). Since the behavior of the mouse to attempt to cover and bury harmless marbles in planer bedding is apparently similar to compulsions in patients with obsessive-compulsive disorders that are repeated while they recognize them as being unreasonable, and also since SSRIs are effective as therapeutic drugs for obsessive-compulsive disorders, and for other reasons, the marble burying behavior is getting positioned as an animal model of obsessive-compulsive disorder
The male ICR mice (weighing 27.6 to 42.9 g; Japan SLC, Inc.) were used in this study. […] At 30 minutes later, the number of marbles more than half-buried in the planer was counted. […]
The effects of the drug are expressed as the actually measured number of buried marbles and the inhibition rate calculated by the following equation.

male Wistar rats = assay: Vogel conflict test in rats; format: in vivo, rat; settings: 0.03 mg/kg oral, 60 minutes before; 5 min session; vehicle 6.1±0.8 times; P=0.003846, Steel-test
Experimental: This test is to measure drinking counts (number of shocks during drinking) when an electric shock is applied to a water-deprived rat at each time that the rat drinks water. Under this condition, a rat is thought to be placed under a state of conflict between the motivation to drink (positive reinforcing factor) and the aversion to receiving an electric shock (negative reinforcing factor, punishment). When anxiolytics are administered to a rat, anxiety about punishing stimuli is suppressed and behavior in an attempt to take a positive reinforcer is observed. This test is thought to be an animal model of generalized anxiety disorders (Folia Pharmacologica Japonica, 115, p. 5 (2005), Japanese Journal of Clinical Psychopharmacology, 9, p. 2389 (2006)).
The male Wistar rats (weighing 148.4 to 211.7 g; Japan SLC, Inc.) and an operant experimental apparatus were used in 20 this study. The chamber consisted of a soundproof box, and a test cage (25×30×25 cm), a shock generator, a controller, a licking sensor and PC analysis system placed in the soundproof box. […] Current conduction by licking (drinking) was detected with the licking senor and measured with the PC analysis system via the controller. […] Twenty nozzle licks were counted as one drinking response and drinking frequency (drinking count) was determined (pre-value). […]

Structure (SMILES): COC(=O)[C@@H]1[C@H]2C[C@H]3c4[nH]c5ccccc5c4CCN3C[C@@H]2CC[C@@H]1O [Yohimbine, reference compound]
- between-rats interaction time (Yohimbine alone) (rats [1]; Yohimbine 5 mg/kg oral, 30 minutes before measurement, vehicle 90.6±7.1 seconds, P=0.0010, Aspin-Welch test): 57.6 ± 3.4 s

Structure (SMILES): Cl.Clc1cccc(N2CCNCC2)c1 [mCPP, meta-chlorophenylpiperadine hydrochloride, reference compound]
- between-rats interaction time (mCPP alone) (rats [2]; mCPP 0.5 mg/kg oral, 30 minutes before measurement, vehicle 83.4±5.1 seconds, P<0.001, Student's t-test): 32.5 ± 3.6 s

Structure (SMILES): Cc1ccc(C(=O)Nc2nc(-c3ccco3)c(C(=O)C3CCOCC3)s2)cn1 [compound (IC)]
- between-rats interaction time (improvement of reduction by Yohimbine) (rats [1]; 0.03 mg/kg, 30 minutes before Yohimbine (5 mg/kg), Yohimbine alone 57.6±3.4 seconds, P=0.00019, Steel test): 90.3 ± 5.0 s
- percentage of freezing behavior in the post-tone period (male SD rats [3]; vehicle 59.8±9.6, P=0.01559, Dunnett test): 23.4 ± 8.1%
- percentage of freezing behavior in the with-tone period (male SD rats [3]; vehicle 90.2±2.6, P=0.02867, Steel test): 57.1 ± 9.9%
- between-rats interaction time (male SD rats [4]; 60 min before, 10 min monitoring, vehicle 85.2 ±7.6 seconds, P=0.01545, Dunnett test): 119.3 ± 9.0 s
- spontaneous activity (male SD rats [4]; vehicle 8635.3 ±506.4 counts, P<0.001, Dunnett test): 12922.7 ±646.8 counts
- time spent in the open arms (male SD rats [5]; 60 min before, 5 minutes, vehicle 21.6 ±7.4 seconds, P=0.01687, Steel test): 61.6 ± 10.9 s
- percentage of open arm entries (male SD rats [5]; vehicle 15.5±3.0%, P=0.04759, Steel test): 33.4±6.3%
- total distance travelled on the maze (male SD rats [5]; vehicle 2521.97±95.34 cm, not affected): 2414.83±102.13 cm
- % inhibition of mouse marble burying behavior (male ICR mice): 73.7%
- between-rats interaction time (improvement of reduction by mCPP) (rats [2]; 0.3 mg/kg, 30 minutes before mCPP (0.5 mg/kg), mCPP alone 32.5±3.6 seconds, P<0.001, Dunnett test): 62.4 ± 6.9 s
- number of electric shocks received (drinking count, test-punished session) (male Wistar rats): 12.7±1.7 times
